# Test results: publication PMC3700073, “Synthesis and Biological Activity of New Thiopyrano[2,3-d]thiazoles Containing a Naphthoquinone Moiety” (Scientia Pharmaceutica, 2013)
# Key:
# [1] = tested on: HL-60(TB) (leukemia); test: NCI five-dose assay; type: cell-based; settings: Homo sapiens, HL-60, HL-60(TB)
# [2] = tested on: SR (leukemia); test: NCI five-dose assay; type: cell-based; settings: Homo sapiens
# [3] = tested on: HOP-62 (NSCL cancer); test: NCI five-dose assay; type: cell-based; settings: Homo sapiens, HOP-62, HOP-62, NSCL cancer
# [4] = tested on: NCI-H460 (NSCL cancer); test: NCI five-dose assay; type: cell-based; settings: Homo sapiens
# [5] = tested on: NCI-H522 (NSCL cancer); test: NCI five-dose assay; type: cell-based; settings: Homo sapiens
# [6] = tested on: M14 (melanoma); test: NCI five-dose assay; type: cell-based; settings: Homo sapiens
# [7] = tested on: SK-MEL-5 (melanoma); test: NCI five-dose assay; type: cell-based, human; settings: for GI50: Homo sapiens, SK-MEL-5, SK-MEL-5, melanoma; for TGI of the most sensitive cell line: SK-MEL-5 /melanoma/
# [8] = tested on: UACC-257 (melanoma); test: NCI five-dose assay; type: cell-based, human; settings: for GI50: Homo sapiens, UACC-257, UACC-257, melanoma
# [9] = tested on: UACC-62 (melanoma); test: NCI five-dose assay; type: cell-based; settings: Homo sapiens, UACC-62, UACC-62, melanoma
# [10] = tested on: MDA-MB-435 (breast cancer); test: NCI five-dose assay; type: cell-based; settings: Homo sapiens, MDA-MB-435, MDA-MB-435, breast cancer
# [11] = tested on: BT-549 (breast cancer); test: NCI five-dose assay; type: cell-based; settings: Homo sapiens, BT-549, BT-549, breast cancer
# [12] = tested on: T-47D (breast cancer); test: NCI five-dose assay; type: cell-based; settings: Homo sapiens, T47D
# [13] = tested on: MDA-MB-231/ATCC (breast cancer); test: NCI five-dose assay; type: cell-based; settings: Homo sapiens, MDA-MB-231, MDA-MB-231/ATCC
# [14] = tested on: PC-3 (prostate cancer); test: NCI five-dose assay; type: cell-based; settings: Homo sapiens
# [15] = tested on: DU-145 (prostate cancer); test: NCI five-dose assay; type: cell-based; settings: Homo sapiens, DU-145, DU-145, prostate cancer
# [16] = tested on: IGROV-1 (ovarian cancer); test: NCI five-dose assay; type: cell-based; settings: Homo sapiens
# [17] = tested on: OVCAR-3 (ovarian cancer); test: NCI five-dose assay; type: cell-based; settings: Homo sapiens, OVCAR-3, OVCAR-3, ovarian cancer
# [18] = tested on: OVCAR-4 (ovarian cancer); test: NCI five-dose assay; type: cell-based; settings: Homo sapiens, OVCAR-4, OVCAR-4, ovarian cancer
# [19] = tested on: 786-0 (renal cancer); test: NCI five-dose assay; type: cell-based; settings: Homo sapiens, 786-0, 786-0, renal cancer
# [20] = tested on: A498 (renal cancer); test: NCI five-dose assay; type: cell-based; settings: Homo sapiens
# [21] = tested on: CAKI-1 (renal cancer); test: NCI five-dose assay; type: cell-based; settings: Homo sapiens, CAKI-1, CAKI-1, renal cancer
# [22] = tested on: SN12C (renal cancer); test: NCI five-dose assay; type: cell-based; settings: Homo sapiens
# [23] = tested on: TK-10 (renal cancer); test: NCI five-dose assay; type: cell-based; settings: Homo sapiens, TK-10, TK-10, renal cancer
# [24] = tested on: UO-31 (renal cancer); test: NCI five-dose assay; type: cell-based; settings: Homo sapiens, UO-31, UO-31, renal cancer
# [25] = tested on: COLO 205 (colon cancer); test: NCI five-dose assay; type: cell-based; settings: Homo sapiens, COLO 205, COLO 205, colon cancer
# [26] = tested on: HCC-2998 (colon cancer); test: NCI five-dose assay; type: cell-based; settings: Homo sapiens, HCC 2998, HCC-2998, colon cancer
# [27] = tested on: Mycobacterium tuberculosis H37Rv strain (ATCC 27294); test: Antimycobacterial pre-screening at 6.25 μg/mL (BACTEC 460 radiometric system); type: cell-based; settings: M. tuberculosis H37Rv; for inhibition at 6.25 µg/mL: 6.25 μg/mL; for MIC90: pre-screening, read-out: Estimation of MIC90
# [28] = tested on: 60 cancer cell lines; test: NCI single-concentration screen, 60 cancer cell lines; type: cell-based, human; settings: single concentration 10^−5 M
# [29] = tested on: SK-MEL-5 (melanoma); test: NCI single-concentration screen; type: cell-based, human; settings: 10^−5 M
# [30] = tested on: M14 (melanoma); test: NCI single-concentration screen; type: cell-based, human; settings: 10^−5 M
# [31] = tested on: MALME-3M (melanoma); test: NCI single-concentration screen; type: cell-based, human; settings: 10^−5 M
# [32] = tested on: (melanoma); test: NCI single-concentration screen; type: cell-based, human; settings: SK-MEL-25 (melanoma), 10^−5 M
# [33] = tested on: SF-295 (CNS cancer); test: NCI single-concentration screen; type: cell-based, human; settings: 10^−5 M
# [34] = tested on: MDA-MB-435 (breast cancer); test: NCI single-concentration screen; type: cell-based, human; settings: 10^−5 M
# [35] = tested on: MDA-MB-468 (breast cancer); test: NCI five-dose assay; type: cell-based; settings: Homo sapiens, repeated testing
smiles,measurement,setting,value
"COc1cc(C2C3=C(Sc4[nH]c(=O)sc42)C(=O)c2ccccc2C3=O)ccc1OCc1ccccc1 (centres unmarked) [Compound 4e, 11-[4-(Benzyloxy)-3-methoxyphenyl]-3,11-dihydro-2H-benzo[6,7]thiochromeno[2,3-d]-[1,3]thiazole-2,5,10-trione]",GI50,[1],15200 nM
same,GI50,[2],13800 nM
same,GI50,[3],14900 nM
same,GI50,[4],5390 nM
same,GI50,[5],15900 nM
same,GI50,[6],6900 nM
same,GI50,[7],2620 nM
same,TGI of the most sensitive cell line,[7],2.62 / 6.90 μM
same,GI50,[8],11300 nM
same,GI50,[9],12500 nM
same,GI50,[10],12000 nM
same,GI50,[11],13400 nM
same,GI50,[12],16100 nM
same,GI50,[13],7810 nM
same,GI50,[14],17700 nM
same,GI50,[15],4190 nM
same,GI50,[16],15400 nM
same,GI50,[17],11200 nM
same,GI50,[18],4480 nM
same,GI50,[19],32600 nM
same,GI50,[20],20500 nM
same,GI50,[21],17400 nM
same,GI50,[22],15300 nM
same,GI50,[23],29700 nM
same,GI50,[24],5620 nM
same,GI50,[25],10300 nM
same,GI50,[26],16600 nM
same,inhibition at 6.25 µg/mL,[27],15%
same,MIC90,[27],> 6.25 µg/mL
"COc1ccc(C2C3=C(Sc4[nH]c(=O)sc42)C(=O)c2ccccc2C3=O)cc1OC (centres unmarked) [Compound 4f, 11-(3,4-Dimethoxyphenyl)-3,11-dihydro-2H-benzo[6,7]thiochromeno[2,3-d][1,3]thiazole-2,5,10-trione]",Mean growth %,[28],1.77%
same,Growth % of the most sensitive cell line,[29],−96.40%
same,Growth % of the most sensitive cell line,[30],−80.36%
same,Growth % of the most sensitive cell line,[31],−66.70%
same,GI50,[1],1980 nM
same,GI50,[2],3960 nM
same,GI50,[3],5870 nM
same,GI50,[4],2180 nM
same,GI50,[5],7910 nM
same,GI50,[6],2670 nM
same,GI50,[7],1520 nM
same,TGI of the most sensitive cell line,[7],1.52 / 2.85 μM
same,GI50,[8],6130 nM
same,GI50,[9],2210 nM
same,GI50,[10],2190 nM
same,GI50,[11],2840 nM
same,GI50,[12],3420 nM
same,GI50,[13],3130 nM
same,GI50,[14],5410 nM
same,GI50,[15],1680 nM
same,GI50,[16],3350 nM
same,GI50,[17],3010 nM
same,GI50,[18],2480 nM
same,GI50,[19],15200 nM
same,GI50,[20],4910 nM
same,GI50,[21],11200 nM
same,GI50,[22],3680 nM
same,GI50,[23],17600 nM
same,GI50,[24],10800 nM
same,GI50,[25],3370 nM
same,inhibition at 6.25 µg/mL,[27],0%
same,MIC90,[27],> 6.25 µg/mL
"COc1cc(C2C3=C(Sc4[nH]c(=O)sc42)C(=O)c2ccccc2C3=O)ccc1O (centres unmarked) [Compound 4i, 11-(4-Hydroxy-3-methoxyphenyl)-3,11-dihydro-2H-benzo[6,7]thiochromeno[2,3-d]-[1,3]thiazole-2,5,10-trione]",Mean growth %,[28],17.75%
same,Growth % of the most sensitive cell line,[32],−74.12%
same,Growth % of the most sensitive cell line,[33],−50.25%
same,Growth % of the most sensitive cell line,[34],−48.22%
same,GI50,[1],2010 nM
same,GI50,[1]; repeated testing,1260 nM
same,GI50,[2],41400 nM
same,GI50,[2]; repeated testing,1960 nM
same,GI50,[3],400 nM
same,GI50,[3]; repeated testing,3600 nM
same,GI50,[4],1920 nM
same,GI50,[4]; repeated testing,1660 nM
same,GI50,[5],1960 nM
same,GI50,[5]; repeated testing,2120 nM
same,GI50,[6],1250 nM
same,GI50,[6]; repeated testing,1220 nM
same,GI50,[7],960 nM
same,GI50,[7]; repeated testing,480 nM
same,GI50,[8],1310 nM
same,GI50,[8]; repeated testing,220 nM
same,TGI of the most sensitive cell line,"[8]; UACC-257 /melanoma/, repeated testing",(0.22 / 1.82) μM
same,GI50,[9],430 nM
same,GI50,[9]; repeated testing,1590 nM
same,GI50,[10],1380 nM
same,GI50,[10]; repeated testing,1480 nM
same,GI50,[11],2740 nM
same,GI50,[11]; repeated testing,920 nM
same,GI50,[12],2560 nM
same,GI50,[35],1750 nM
same,GI50,[13],860 nM
same,GI50,[13]; repeated testing,1980 nM
same,GI50,[14],1980 nM
same,GI50,[14]; repeated testing,2570 nM
same,GI50,[15],510 nM
same,GI50,[15]; repeated testing,930 nM
same,GI50,[16],2480 nM
same,GI50,[17],1030 nM
same,GI50,[17]; repeated testing,570 nM
same,GI50,[18],2190 nM
same,GI50,[18]; repeated testing,1330 nM
same,GI50,[19],2600 nM
same,GI50,[19]; repeated testing,5200 nM
same,GI50,[20],1950 nM
same,GI50,[20]; repeated testing,2110 nM
same,GI50,[21],1500 nM
same,GI50,[21]; repeated testing,2920 nM
same,GI50,[22]; repeated testing,3020 nM
same,GI50,[23],5740 nM
same,GI50,[23]; repeated testing,2160 nM
same,GI50,[24],3330 nM
same,GI50,[24]; repeated testing,570 nM
same,GI50,[25],2080 nM
same,GI50,[25]; repeated testing,1680 nM
same,GI50,[26],3770 nM
same,GI50,[26]; repeated testing,3240 nM
